Measurements reported in ChEMBL document CHEMBL3885861, “Open TG-GATES”.

Species: Rattus norvegicus
Assay: Open TG-GATES - Regimen: Single
Format: toxicity, organism-based, Sprague-Dawley
Set-up: regimen Single, gender Male, age 6 weeks
Conditions: in vivo, iv, route intravenous injection; for APTT / Bas / Eos / Fbg / Hb / Ht / Lym / MCH / MCHC / MCV / Mono / PT / Plat / RBC / Ret / WBC: tissue Blood; for KIDNEY_L / KIDNEY_R / KIDNEY_TOTAL: tissue Kidney; for LIVER: tissue Liver; for ALP / ALT / AST / BUN / CRE / Ca / Cl / DBIL / GLC / IP / K / LDH / Na / PL / RALB / TBIL / TC / TG / TP / gamma-GTP: tissue Plasma
[1] = 1000 mg/kg, 3 h, dose level Middle
[2] = 1000 mg/kg, 6 h, dose level Middle
[3] = 1000 mg/kg, 9 h, dose level Middle
[4] = 1000 mg/kg, 24 h, dose level Middle
[5] = 2000 mg/kg, 3 h, dose level High
[6] = 2000 mg/kg, 6 h, dose level High
[7] = 2000 mg/kg, 9 h, dose level High
[8] = 2000 mg/kg, 24 h, dose level High

CC(=O)OCC1=C(C(=O)O)N2C(=O)[C@@H](NC(=O)Cc3cccs3)[C@H]2SC1 [CEPHALOTHIN]
TERMINAL_BW [1]: 212.6 g
APTT [1]: 22.3 s
Bas [1]: 0%
Eos [1]: 0.4%
Fbg [1]: 266.6 mg/dL
Hb [1]: 13.2 g/dL
Ht [1]: 38.5%
Lym [1]: 72%
MCH [1]: 21.3 pg
MCHC [1]: 34.3%
MCV [1]: 62 fL
Mono [1]: 3.2%
PT [1]: 16.3 s
Plat [1]: 116.5 x10_4/uL
RBC [1]: 622 x10_4/ul
Ret [1]: 5.8%
WBC [1]: 76.3 x10_2/uL
KIDNEY_L [1]: 0.9 g
KIDNEY_R [1]: 0.9 g
KIDNEY_TOTAL [1]: 1.9 g
LIVER [1]: 10 g
ALP [1]: 1462.8 IU/L
ALT [1]: 52.4 IU/L
AST [1]: 101 IU/L
BUN [1]: 12.6 mg/dL
CRE [1]: 0.2 mg/dL
Ca [1]: 10.8 mg/dL
Cl [1]: 105.2 meq/L
DBIL [1]: 0 mg/dL
GLC [1]: 173 mg/dL
IP [1]: 8.5 mg/dL
K [1]: 4.3 meq/L
LDH [1]: 207.6 IU/L
Na [1]: 141.8 meq/L
PL [1]: 141.2 mg/dL
RALB [1]: 2.9 g/dL
TBIL [1]: 0.02 mg/dL
TC [1]: 68.8 mg/dL
TG [1]: 132.8 mg/dL
TP [1]: 5.2 g/dL
gamma-GTP [1]: 1.2 IU/L
TERMINAL_BW [2]: 218.3 g
APTT [2]: 24.1 s
Bas [2]: 0%
Eos [2]: 1%
Fbg [2]: 281.6 mg/dL
Hb [2]: 13.1 g/dL
Ht [2]: 38.6%
Lym [2]: 76.4%
MCH [2]: 21.1 pg
MCHC [2]: 34%
MCV [2]: 62.1 fL
Mono [2]: 2.4%
PT [2]: 16.2 s
Plat [2]: 135.7 x10_4/uL
RBC [2]: 622 x10_4/ul
Ret [2]: 6.3%
WBC [2]: 78.7 x10_2/uL
KIDNEY_L [2]: 1 g
KIDNEY_R [2]: 1 g
KIDNEY_TOTAL [2]: 1.9 g
LIVER [2]: 9.4 g
ALP [2]: 1381.4 IU/L
ALT [2]: 39.2 IU/L
AST [2]: 91.4 IU/L
BUN [2]: 12.8 mg/dL
CRE [2]: 0.2 mg/dL
Ca [2]: 10.5 mg/dL
Cl [2]: 106.2 meq/L
DBIL [2]: 0.002 mg/dL
GLC [2]: 175.4 mg/dL
IP [2]: 8.9 mg/dL
K [2]: 4.5 meq/L
LDH [2]: 176 IU/L
Na [2]: 141.4 meq/L
PL [2]: 127.8 mg/dL
RALB [2]: 2.8 g/dL
TBIL [2]: 0.018 mg/dL
TC [2]: 61.6 mg/dL
TG [2]: 115.2 mg/dL
TP [2]: 5.2 g/dL
gamma-GTP [2]: 1.2 IU/L
TERMINAL_BW [3]: 213.7 g
APTT [3]: 22.5 s
Bas [3]: 0%
Eos [3]: 1%
Fbg [3]: 293.2 mg/dL
Hb [3]: 13 g/dL
Ht [3]: 38.2%
Lym [3]: 73.4%
MCH [3]: 20.9 pg
MCHC [3]: 34%
MCV [3]: 61.6 fL
Mono [3]: 2.2%
PT [3]: 16.1 s
Plat [3]: 128.3 x10_4/uL
RBC [3]: 620.4 x10_4/ul
Ret [3]: 6.8%
WBC [3]: 74.6 x10_2/uL
KIDNEY_L [3]: 1 g
KIDNEY_R [3]: 1 g
KIDNEY_TOTAL [3]: 1.9 g
LIVER [3]: 8.9 g
ALP [3]: 1218.6 IU/L
ALT [3]: 33.2 IU/L
AST [3]: 75.4 IU/L
BUN [3]: 11 mg/dL
CRE [3]: 0.2 mg/dL
Ca [3]: 10.5 mg/dL
Cl [3]: 107.2 meq/L
DBIL [3]: 0 mg/dL
GLC [3]: 176.6 mg/dL
IP [3]: 9.1 mg/dL
K [3]: 4.5 meq/L
LDH [3]: 150 IU/L
Na [3]: 141.6 meq/L
PL [3]: 138.8 mg/dL
RALB [3]: 2.9 g/dL
TBIL [3]: 0.018 mg/dL
TC [3]: 72 mg/dL
TG [3]: 90.2 mg/dL
TP [3]: 5.4 g/dL
gamma-GTP [3]: 1.6 IU/L
TERMINAL_BW [4]: 219.2 g
APTT [4]: 22.5 s
Bas [4]: 0%
Eos [4]: 1%
Fbg [4]: 309.8 mg/dL
Hb [4]: 13.5 g/dL
Ht [4]: 39.4%
Lym [4]: 81.4%
MCH [4]: 20.7 pg
MCHC [4]: 34.3%
MCV [4]: 60.5 fL
Mono [4]: 2.4%
PT [4]: 16.3 s
Plat [4]: 124.3 x10_4/uL
RBC [4]: 651.8 x10_4/ul
Ret [4]: 5.1%
WBC [4]: 73.5 x10_2/uL
KIDNEY_L [4]: 1 g
KIDNEY_R [4]: 1 g
KIDNEY_TOTAL [4]: 1.9 g
LIVER [4]: 9.5 g
ALP [4]: 1371.4 IU/L
ALT [4]: 48 IU/L
AST [4]: 76.8 IU/L
BUN [4]: 15.8 mg/dL
CRE [4]: 0.2 mg/dL
Ca [4]: 10.6 mg/dL
Cl [4]: 106.8 meq/L
DBIL [4]: 0 mg/dL
GLC [4]: 190.8 mg/dL
IP [4]: 6.7 mg/dL
K [4]: 4.2 meq/L
LDH [4]: 146.8 IU/L
Na [4]: 143 meq/L
PL [4]: 148.8 mg/dL
RALB [4]: 3.1 g/dL
TBIL [4]: 0.012 mg/dL
TC [4]: 80.6 mg/dL
TG [4]: 79.4 mg/dL
TP [4]: 5.7 g/dL
gamma-GTP [4]: 1.6 IU/L
TERMINAL_BW [5]: 214.8 g
APTT [5]: 23.6 s
Bas [5]: 0%
Eos [5]: 0.4%
Fbg [5]: 277.6 mg/dL
Hb [5]: 13.6 g/dL
Ht [5]: 39.4%
Lym [5]: 66.4%
MCH [5]: 21.1 pg
MCHC [5]: 34.5%
MCV [5]: 61.3 fL
Mono [5]: 3.6%
PT [5]: 16.6 s
Plat [5]: 131.7 x10_4/uL
RBC [5]: 644 x10_4/ul
Ret [5]: 6.1%
WBC [5]: 63.2 x10_2/uL
KIDNEY_L [5]: 0.9 g
KIDNEY_R [5]: 1 g
KIDNEY_TOTAL [5]: 1.9 g
LIVER [5]: 9.6 g
ALP [5]: 1568.4 IU/L
ALT [5]: 46.4 IU/L
AST [5]: 94.6 IU/L
BUN [5]: 12.2 mg/dL
CRE [5]: 0.2 mg/dL
Ca [5]: 10.7 mg/dL
Cl [5]: 104.4 meq/L
DBIL [5]: 0.002 mg/dL
GLC [5]: 173.2 mg/dL
IP [5]: 9.3 mg/dL
K [5]: 4.2 meq/L
LDH [5]: 214.4 IU/L
Na [5]: 141.8 meq/L
PL [5]: 136 mg/dL
RALB [5]: 2.9 g/dL
TBIL [5]: 0.016 mg/dL
TC [5]: 68.2 mg/dL
TG [5]: 79.8 mg/dL
TP [5]: 5.4 g/dL
gamma-GTP [5]: 1.2 IU/L
TERMINAL_BW [6]: 214.6 g
APTT [6]: 23 s
Bas [6]: 0%
Eos [6]: 0.4%
Fbg [6]: 279.2 mg/dL
Hb [6]: 13.4 g/dL
Ht [6]: 39.1%
Lym [6]: 67.4%
MCH [6]: 21 pg
MCHC [6]: 34.3%
MCV [6]: 61.1 fL
Mono [6]: 3%
PT [6]: 16.3 s
Plat [6]: 121.3 x10_4/uL
RBC [6]: 639.8 x10_4/ul
Ret [6]: 5.9%
WBC [6]: 81.2 x10_2/uL
KIDNEY_L [6]: 1 g
KIDNEY_R [6]: 1.1 g
KIDNEY_TOTAL [6]: 2.1 g
LIVER [6]: 9.2 g
ALP [6]: 1347.4 IU/L
ALT [6]: 42.6 IU/L
AST [6]: 95.8 IU/L
BUN [6]: 12 mg/dL
CRE [6]: 0.1 mg/dL
Ca [6]: 10.6 mg/dL
Cl [6]: 105 meq/L
DBIL [6]: 0.002 mg/dL
GLC [6]: 171.6 mg/dL
IP [6]: 9.4 mg/dL
K [6]: 4.4 meq/L
LDH [6]: 182.6 IU/L
Na [6]: 141.2 meq/L
PL [6]: 145 mg/dL
RALB [6]: 2.9 g/dL
TBIL [6]: 0.022 mg/dL
TC [6]: 73.6 mg/dL
TG [6]: 136.6 mg/dL
TP [6]: 5.3 g/dL
gamma-GTP [6]: 1.2 IU/L
TERMINAL_BW [7]: 210.5 g
APTT [7]: 21.8 s
Bas [7]: 0%
Eos [7]: 1%
Fbg [7]: 290.8 mg/dL
Hb [7]: 13.4 g/dL
Ht [7]: 39.2%
Lym [7]: 70.8%
MCH [7]: 21 pg
MCHC [7]: 34.2%
MCV [7]: 61.4 fL
Mono [7]: 2.8%
PT [7]: 16.3 s
Plat [7]: 122.1 x10_4/uL
RBC [7]: 638.8 x10_4/ul
Ret [7]: 5.8%
WBC [7]: 69.5 x10_2/uL
KIDNEY_L [7]: 1 g
KIDNEY_R [7]: 1 g
KIDNEY_TOTAL [7]: 2 g
LIVER [7]: 8.6 g
ALP [7]: 1382 IU/L
ALT [7]: 39.4 IU/L
AST [7]: 90 IU/L
BUN [7]: 10.4 mg/dL
CRE [7]: 0.1 mg/dL
Ca [7]: 10.5 mg/dL
Cl [7]: 106 meq/L
DBIL [7]: 0 mg/dL
GLC [7]: 176 mg/dL
IP [7]: 9.3 mg/dL
K [7]: 4.5 meq/L
LDH [7]: 162.6 IU/L
Na [7]: 141 meq/L
PL [7]: 134.4 mg/dL
RALB [7]: 2.9 g/dL
TBIL [7]: 0.028 mg/dL
TC [7]: 66.4 mg/dL
TG [7]: 101.2 mg/dL
TP [7]: 5.3 g/dL
gamma-GTP [7]: 1.2 IU/L
TERMINAL_BW [8]: 223.7 g
APTT [8]: 21.3 s
Bas [8]: 0%
Eos [8]: 0.8%
Fbg [8]: 339.2 mg/dL
Hb [8]: 13.5 g/dL
Ht [8]: 38.6%
Lym [8]: 83.6%
MCH [8]: 20.4 pg
MCHC [8]: 34.8%
MCV [8]: 58.4 fL
Mono [8]: 2.4%
PT [8]: 16.2 s
Plat [8]: 117.9 x10_4/uL
RBC [8]: 661.4 x10_4/ul
Ret [8]: 5.4%
WBC [8]: 77.7 x10_2/uL
KIDNEY_L [8]: 1 g
KIDNEY_R [8]: 1 g
KIDNEY_TOTAL [8]: 2 g
LIVER [8]: 9 g
ALP [8]: 1511.8 IU/L
ALT [8]: 44.8 IU/L
AST [8]: 78.6 IU/L
BUN [8]: 15.6 mg/dL
CRE [8]: 0.2 mg/dL
Ca [8]: 10.6 mg/dL
Cl [8]: 106 meq/L
DBIL [8]: 0.004 mg/dL
GLC [8]: 183 mg/dL
IP [8]: 7.3 mg/dL
K [8]: 4.4 meq/L
LDH [8]: 162 IU/L
Na [8]: 142.2 meq/L
PL [8]: 143.8 mg/dL
RALB [8]: 3.1 g/dL
TBIL [8]: 0.02 mg/dL
TC [8]: 74.6 mg/dL
TG [8]: 76 mg/dL
TP [8]: 5.7 g/dL
gamma-GTP [8]: 1.6 IU/L
